According to patent publication US10030020B2, “Spirocycle compounds and methods of making and using same” (Abide Therapeutics, Inc., priority 2016, dated 2018):

Legend:
MAGL [1] = molecular target: T1, MAGL (Mus musculus (Mouse), UniProt O35678); test: In vitro competitive activity-based protein profiling (mouse brain membrane fraction or cell lysates), MAGL band; assay type: biochemical; conditions: mouse proteome; for inhibition at 1 µM: read-out: MAGL % Inh 1 μM (mouse); for IC50: competitive ABPP
T1 sequence (O35678 whole entry): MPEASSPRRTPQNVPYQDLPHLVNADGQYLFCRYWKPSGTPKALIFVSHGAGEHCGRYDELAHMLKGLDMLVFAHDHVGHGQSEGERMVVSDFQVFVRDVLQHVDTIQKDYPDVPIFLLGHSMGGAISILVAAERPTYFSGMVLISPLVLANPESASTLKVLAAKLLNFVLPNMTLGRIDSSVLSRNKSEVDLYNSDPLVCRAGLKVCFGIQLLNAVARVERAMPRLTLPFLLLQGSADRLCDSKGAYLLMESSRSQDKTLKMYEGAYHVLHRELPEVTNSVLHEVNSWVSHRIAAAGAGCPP
Method: In Vitro Competitive Activity-Based Protein Profiling.
Proteomes (mouse brain membrane fraction or cell lysates) (50 μL, 1.0 mg/mL total protein concentration) were preincubated with varying concentrations of inhibitors at 37° C. After 30 min, FP—Rh (1.0 μL, 50 μM in DMSO) was added and the mixture was incubated for another 30 min at 37° C. Reactions were quenched with SDS loading buffer (50 μL-4×) and run on SDS-PAGE.

FAAH [2] = molecular target: T2, FAAH (Mus musculus (Mouse), UniProt O08914); test: In vitro competitive activity-based protein profiling (mouse brain membrane fraction or cell lysates), FAAH band; assay type: biochemical; conditions: mouse proteome; for inhibition at 1 µM: read-out: FAAH % Inh 1 μM (mouse); for IC50: competitive ABPP
T2 sequence (O08914 whole entry): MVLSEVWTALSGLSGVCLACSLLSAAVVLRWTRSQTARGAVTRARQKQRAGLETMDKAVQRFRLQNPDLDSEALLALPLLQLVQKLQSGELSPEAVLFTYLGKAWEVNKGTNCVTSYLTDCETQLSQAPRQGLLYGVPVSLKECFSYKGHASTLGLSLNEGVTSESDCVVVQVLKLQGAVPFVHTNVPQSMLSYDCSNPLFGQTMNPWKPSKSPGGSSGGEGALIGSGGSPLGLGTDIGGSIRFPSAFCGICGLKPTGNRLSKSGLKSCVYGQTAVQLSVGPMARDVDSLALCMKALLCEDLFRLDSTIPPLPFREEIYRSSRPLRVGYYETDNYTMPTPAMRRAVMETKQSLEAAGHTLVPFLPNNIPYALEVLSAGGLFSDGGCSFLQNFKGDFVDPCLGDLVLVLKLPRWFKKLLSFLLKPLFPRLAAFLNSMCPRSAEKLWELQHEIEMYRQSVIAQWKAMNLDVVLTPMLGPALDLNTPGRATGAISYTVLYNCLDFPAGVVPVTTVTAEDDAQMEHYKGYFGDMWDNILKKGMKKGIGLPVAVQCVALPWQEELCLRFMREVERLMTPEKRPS
In short: (§1)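 Residual hydrolase activity was measured as gel band fluorescence after FP-Rh labelling (30 min, 37° C) of proteomes pretreated 30 min at 37° C with inhibitor.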

MAGL [3] = molecular target: T1, MAGL; test: Mouse brain proteomes from inhibitor treated mice (oral gavage, sacrificed 4 h after administration, ABPP analysis); assay type: in vivo, mouse (C57Bl/6J); conditions: 5 mg/kg oral gavage
In short: (§2)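 Mice (wild-type C57Bl/6J) receive inhibitor by oral gavage, e.g. in PEG400/Ethanol/PBS (7/2/1). Each animal is killed 4 h later. Brain proteomes are prepared and analyzed by ABPP, giving % inhibition at 5 mg/kg.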

ABHD6 [4] = molecular target: T3, ABHD6 (Mus musculus (Mouse), UniProt Q8R2Y0); test: In vitro competitive activity-based protein profiling (mouse brain membrane fraction or cell lysates), ABHD6 band; assay type: biochemical; conditions: mouse proteome; for inhibition at 1 µM: read-out: ABHD6 % Inh 1 μM (mouse); for IC50: competitive ABPP
T3 sequence (Q8R2Y0 whole entry): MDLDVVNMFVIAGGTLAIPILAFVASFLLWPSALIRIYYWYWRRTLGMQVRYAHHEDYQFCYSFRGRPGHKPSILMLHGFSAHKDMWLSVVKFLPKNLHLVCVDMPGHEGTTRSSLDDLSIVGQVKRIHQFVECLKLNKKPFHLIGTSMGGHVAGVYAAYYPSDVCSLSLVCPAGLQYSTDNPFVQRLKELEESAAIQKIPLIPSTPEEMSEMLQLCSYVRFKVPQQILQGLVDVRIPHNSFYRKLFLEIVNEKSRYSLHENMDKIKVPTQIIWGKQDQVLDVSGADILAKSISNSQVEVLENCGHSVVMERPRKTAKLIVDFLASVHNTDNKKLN
In short: as §1

FAAH [5] = molecular target: T2, FAAH; test: Mouse brain proteomes from inhibitor treated mice (oral gavage, sacrificed 4 h after administration, ABPP analysis), FAAH; assay type: in vivo, mouse (C57Bl/6J); conditions: 5 mg/kg oral gavage
In short: as §2

ABHD6 [6] = molecular target: T3, ABHD6; test: Mouse brain proteomes from inhibitor treated mice (oral gavage, sacrificed 4 h after administration, ABPP analysis), ABHD6; assay type: in vivo, mouse (C57Bl/6J); conditions: 5 mg/kg oral gavage
In short: as §2

Row | SMILES | inhibition at 1 µM (MAGL [1]) | IC50 (MAGL [1]) | inhibition at 1 µM (FAAH [2]) | IC50 (FAAH [2]) | MAGL % Inh 5 mg/kg (mouse) (MAGL [3]) | inhibition at 1 µM (ABHD6 [4]) | IC50 (ABHD6 [4]) | FAAH % Inh 5 mg/kg (mouse) (FAAH [5]) | ABHD6 % Inh 5 mg/kg (mouse) (ABHD6 [6])
1 | O=C(OC(C(F)(F)F)C(F)(F)F)N1CCC2(CCCN2Cc2ccc(N3CCCC3)c(Cl)c2)CC1 [Example 128, 1,1,1,3,3,3-Hexafluoropropan-2-yl 1-(3-chloro-4-(pyrrolidin-1-yl)benzyl)-1,8-diazaspiro[4.5]decane-8-carboxylate] | > 75% | < 0.1 µM | < 25% | > 1 µM | ### (### is ≥75%) | < 25% | > 1 µM | # (# is <25%) | # (# is <25%)
2 | O=C(OC(C(F)(F)F)C(F)(F)F)N1CCC2(CCCN2Cc2ccc(N3CCOCC3)c(C(F)(F)F)c2)CC1 [Example 129, 1,1,1,3,3,3-Hexafluoropropan-2-yl 1-(4-morpholino-3-(trifluoromethyl)benzyl)-1,8-diazaspiro[4.5]decane-8-carboxylate] | > 75% | < 0.1 µM | < 25% | > 1 µM | ### (### is ≥75%) | 25 to 75% | > 1 µM | # (# is <25%) | # (# is <25%)
3 | O=C(OC(C(F)(F)F)C(F)(F)F)N1CCC2(CCCN2Cc2ccc(N3CCCC3)c(C(F)(F)F)c2)CC1 [Example 130, 1,1,1,3,3,3-Hexafluoropropan-2-yl 1-(4-(pyrrolidin-1-yl)-3-(trifluoromethyl)benzyl)-1,8-diazaspiro[4.5]decane-8-carboxylate] | > 75% | < 0.1 µM | < 25% | > 1 µM | ### (### is ≥75%) | 25 to 75% | > 1 µM | # (# is <25%) | # (# is <25%)
4 | O=C(OC(C(F)(F)F)C(F)(F)F)N1CCC2(CCCN2Cc2ccc(Cl)c(N3CCCC3)c2)CC1 [Example 132, 1,1,1,3,3,3-Hexafluoropropan-2-yl 1-(4-chloro-3-(pyrrolidin-1-yl)benzyl)-1,8-diazaspiro[4.5]decane-8-carboxylate] | > 75% | < 0.1 µM | < 25% | > 1 µM | ### (### is ≥75%) | < 25% | > 1 µM | # (# is <25%) | # (# is <25%)
5 | CS(=O)(=O)N1CCc2cccc(CN3CCCC34CCN(C(=O)OC(C(F)(F)F)C(F)(F)F)CC4)c2C1 [Example 146, 1,1,1,3,3,3-Hexafluoropropan-2-yl 1-((2-methanesulfonyl-1,2,3,4-tetrahydroisoquinolin-8-yl)methyl)-1,8-diazaspiro[4.5]decane-8-carboxylate] | > 75% | < 0.1 µM | < 25% | > 1 µM | ### (### is ≥75%) | 25 to 75% | > 1 µM | # (# is <25%) | ## (## is equal to or greater than 25% but less than 75%)
6 | CCc1cc(CN2CCCC23CCN(C(=O)OC(C(F)(F)F)C(F)(F)F)CC3)ccc1F [Example 150, 1,1,1,3,3,3-Hexafluoropropan-2-yl 1-(3-ethyl-4-fluorobenzyl)-1,8-diazaspiro[4.5]decane-8-carboxylate] | > 75% | < 0.1 µM | < 25% | > 1 µM | ### (### is ≥75%) | < 25% | > 1 µM | # (# is <25%) | # (# is <25%)
7 | O=C(OC(C(F)(F)F)C(F)(F)F)N1CCC2(CCCN2Cc2ccc3c(c2)COC3)CC1 [Example 151, 1,1,1,3,3,3-Hexafluoropropan-2-yl 1-((1,3-dihydroisobenzofuran-5-yl)methyl)-1,8-diazaspiro[4.5]decane-8-carboxylate] | > 75% | < 0.1 µM | < 25% | > 1 µM | ### (### is ≥75%) | < 25% | > 1 µM | ## (## is equal to or greater than 25% but less than 75%) | ## (## is equal to or greater than 25% but less than 75%)
8 | CCc1cc(CN2CCC3(CCN(C(=O)OC(C(F)(F)F)C(F)(F)F)CC3)C2)ccc1F [Example 152, 1,1,1,3,3,3-Hexafluoropropan-2-yl 2-(3-ethyl-4-fluorobenzyl)-2,8-diazaspiro[4.5]decane-8-carboxylate] | > 75% | < 0.1 µM | < 25% | > 1 µM | ### (### is ≥75%) | ≥ 75% | 0.1 to 1 µM | # (# is <25%) | ### (### is ≥75%)
9 | O=C(OC(C(F)(F)F)C(F)(F)F)N1CCC2(CCN(Cc3ccc(C(F)(F)F)c(N4CCCC4)c3)C2)CC1 [Example 157, 1,1,1,3,3,3-Hexafluoropropan-2-yl 2-(3-(pyrrolidin-1-yl)-4-(trifluoromethyl)benzyl)-2,8-diazaspiro[4.5]decane-8-carboxylate] | > 75% | < 0.1 µM | < 25% | > 1 µM | ### (### is ≥75%) | ≥ 75% | 0.1 to 1 µM | # (# is <25%) | ## (## is equal to or greater than 25% but less than 75%)
10 | CN1CCC(Oc2cc(CN3CCCC34CCN(C(=O)OC(C(F)(F)F)C(F)(F)F)CC4)cc(C(F)(F)F)c2)CC1 [Example 166, 1,1,1,3,3,3-Hexafluoropropan-2-yl 1-(3-(1-methylpiperidin-4-yloxy)-5-(trifluoromethyl)benzyl)-1,8-diazaspiro[4.5]decane-8-carboxylate] | > 75% | < 0.1 µM | < 25% | > 1 µM | # (# is <25%) | < 25% | > 1 µM | # (# is <25%) | # (# is <25%)
11 | O=C(COc1cc(CN2CCCC23CCN(C(=O)OC(C(F)(F)F)C(F)(F)F)CC3)cc(C(F)(F)F)c1)N1CCCC1 [Example 168, 1,1,1,3,3,3-Hexafluoropropan-2-yl 1-(3-(2-oxo-2-(pyrrolidin-1-yl)ethoxy)-5-(trifluoromethyl)benzyl)-1,8-diazaspiro[4.5]decane-8-carboxylate] | > 75% | < 0.1 µM | < 25% | > 1 µM | ## (## is equal to or greater than 25% but less than 75%) | < 25% | > 1 µM | # (# is <25%) | # (# is <25%)
12 | O=C(OC(C(F)(F)F)C(F)(F)F)N1CCC2(CCCN2Cc2cc(OC3CCOCC3)cc(C(F)(F)F)c2)CC1 [Example 170, 1,1,1,3,3,3-Hexafluoropropan-2-yl 1-(3-(tetrahydro-2H-pyran-4-yloxy)-5-(trifluoromethyl)benzyl)-1,8-diazaspiro[4.5]decane-8-carboxylate] | > 75% | < 0.1 µM | < 25% | > 1 µM | ## (## is equal to or greater than 25% but less than 75%) | < 25% | > 1 µM | # (# is <25%) | # (# is <25%)
13 | O=C(OC(C(F)(F)F)C(F)(F)F)N1CCC2(CCCN2Cc2cc(Oc3nc4ccccc4s3)cc(C(F)(F)F)c2)CC1 [Example 172, 1,1,1,3,3,3-Hexafluoropropan-2-yl 1-(3-(benzo[d]thiazol-2-yloxy)-5-(trifluoromethyl)benzyl)-1,8-diazaspiro[4.5]decane-8-carboxylate] | > 75% | < 0.1 µM | < 25% | > 1 µM | # (# is <25%) | < 25% | > 1 µM | # (# is <25%) | # (# is <25%)
14 | O=C(OC(C(F)(F)F)C(F)(F)F)N1CCC2(CCCN2Cc2ccc(C(F)(F)F)cc2Oc2cccnc2)CC1 [Example 173, 1,1,1,3,3,3-Hexafluoropropan-2-yl 1-(2-(pyridin-3-yloxy)-4-(trifluoromethyl)benzyl)-1,8-diazaspiro[4.5]decane-8-carboxylate] | > 75% | < 0.1 µM | < 25% | > 1 µM | ## (## is equal to or greater than 25% but less than 75%) | 25 to 75% | > 1 µM | # (# is <25%) | # (# is <25%)
